The values that follow come from EPA's ToxValDB 9.5 (doi:10.2903/j.efsa.2017.4887).

Series [1] concerns Folsomia candida. The conditions noted are these: chronic/long-term; duration: 28 days; reproduction.
The test system of series [2] is Pleurozium sp. The conditions noted are these: acute; duration: 72 hours; growth.
In series [3] the test system is Oncorhynchus mykiss. The conditions noted are these: acute; duration: 96 hours; mortality.
Series [4] has as its system Anas platyrhynchos. The conditions noted are these: reproductive.
For series [5], the system named is Apis mellifera. The conditions noted are these: acute, mortality.
In series [6] the test system is Argyrosomus sp. The conditions noted are these: acute; duration: 96 hours; mortality.
Series [7] relates to Bibionidae. The conditions noted are these: chronic/long-term; duration: 28 days; other.
The subject of series [8] is Colinus virginianus. The conditions noted are these: acute; oral; mortality.
In series [9] the test system is Cyprinodon variegatus. The conditions noted are these: chronic/long-term; duration: 100 days; reproduction.
The test system of series [10] is Hypoaspis aculeifer. The conditions noted are these: chronic/long-term; reproduction.
Series [11] concerns Neomysis kadiakensis.
In series [12] the test system is Rattus norvegicus.
Series [13] has as its system Aphidius rhopalosiphi. Kind of series: LR50; higher = less toxic. The conditions noted are these: not reported; mortality.

In brackets after ≈: the same amount, converted by molar mass.

Take `O=C(O)[C@H]1CO[C@@](Cn2cncn2)(c2ccc(Cl)cc2Cl)O1` (racemic): the NOEC in series [1] came out at 1000 mg/kg; in [2], 112 mg/L.

The term LC50 denotes the concentration lethal to half of the exposed cells or organisms. `O=C(O)[C@@H]1CO[C@@](Cn2cncn2)(c2ccc(Cl)cc2Cl)O1` (racemic): the NOEC in series [1] was 1000 mg/kg. In [3], this compound came in with an LC50 of over 100 µg/mL.

A word on the NOAEL: it is the highest dose or exposure tested at which no adverse effect was seen. As to `CCCC1COC(Cn2cncn2)(c2ccc(Cl)cc2Cl)O1` (centres undefined) [Propiconazole], the NOAEL in series [4] stood at 25.5 mg/kg-day; in series [12] (chronic, duration: 2 years, organ weight), 3.6 mg/kg-day; in [12] (developmental, development), 30 mg/kg-day; in [12] (reproduction developmental, histopathology: nonneoplastic), 8.4 mg/kg-day. Further, the LD50 in series [5] (dermal) was 46.3 µg/piece; in series [5] (oral, unspecified), 203 µg/piece; in series [8], at least 2510 mg/kg-day; in [12] (acute, oral, mortality), 550 mg/kg-day. Also, the LC50 in series [6] came to 2.6 µg/mL (≈ 7.6 µM); in series [11] (acute, duration: 96 hours, mortality) it was 0.51 µg/mL (≈ 1.49 µM). For the same compound, the NOEC in series [7] came out at 4 mg/L; in series [9], 0.068 mg/L; in [10], 22.4 mg/kg; in series [11] (chronic/long-term, duration: 28 days, reproduction) it was 0.114 mg/L. Besides, the LR50 in series [13] was over 250 g/ha.
